Where two headings read alike, the source gives them in different places.
Columns and labels:
[1] = parameters: method as in PMID 32628359; conditions: four independent Phase I studies; cited from earlier work
human UGT1A1 enzyme = target: T1, human UGT1A1 enzyme (Homo sapiens, UniProt P22309); experiment: Inhibition of UGT1A1 glucuronidation activity (recombinant enzyme); format: biochemical; conditions: SCO-101 0.003–1 µM
T1 sequence (P22309 26-533): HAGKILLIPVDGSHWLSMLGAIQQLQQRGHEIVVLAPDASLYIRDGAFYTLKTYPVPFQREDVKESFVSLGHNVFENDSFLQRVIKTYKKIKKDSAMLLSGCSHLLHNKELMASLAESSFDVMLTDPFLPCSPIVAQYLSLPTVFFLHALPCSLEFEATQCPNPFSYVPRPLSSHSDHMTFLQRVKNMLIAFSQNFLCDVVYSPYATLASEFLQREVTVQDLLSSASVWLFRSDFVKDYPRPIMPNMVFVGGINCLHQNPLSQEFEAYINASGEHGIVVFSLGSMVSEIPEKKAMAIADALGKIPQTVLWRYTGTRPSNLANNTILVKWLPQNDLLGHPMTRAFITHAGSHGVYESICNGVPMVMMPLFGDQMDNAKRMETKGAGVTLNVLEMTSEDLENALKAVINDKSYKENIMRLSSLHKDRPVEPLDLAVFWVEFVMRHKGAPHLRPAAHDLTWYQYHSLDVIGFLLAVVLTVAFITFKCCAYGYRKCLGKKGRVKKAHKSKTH
Description: The inhibition potency of SCO-101 towards the human UGT1A1 enzyme was studied using recombinant human enzymes and the two different probe substrates β-estradiol (10 μM) and SN-38 (10 μM). Additionally, a positive control inhibitor at a single concentration (10 μM ketoconazole) and a solvent control were employed. Reactions were conducted at 37 °C after a 10 min pre-incubation at 37 °C in incubation buffer (10 mM Tris-HCl, pH 7.4, 5 mM MgCl2, […] alamethicin) and started by adding 5 mM UDPGA. Reactions were terminated after 30 min by adding an equal volume of ice-cold acetonitrile with 1% formic acid and 0.5 μM caffeine. The level of the UGT-specific probe glucuronidation was monitored by LC/MS-MS, and inhibition was observed as a reduced level of metabolite formation of the substrate.

MKN45 cells = experiment: Cell viability assay (CellTiter-Glo), MKN45; format: cell-based; conditions: Homo sapiens, MKN-45, 96 h
Description: (§1) Cells were seeded at a density of 0.2–1 × 10^4 cells/well into 96-well plates. One day after seeding, treatments were performed in triplicate for 72 h, or as otherwise indicated in the relevant panel/figure legend and kept at 37 °C/5% CO2. Growth medium alone (“untreated” cells) or DMSO was used as a control.
For SCH, SNU-5, and MKN45 cells, 50 μL of CellTiter-Glo® Reagent (Promega; Madison, WI, USA) was added to each well at the end of the treatments. The content was mixed for 5 min to facilitate cell lysis and plates incubated at room temperature for 10 min to stabilize luminescent signals, which were then recorded using an EnVision Multi Label Reader (PerkinElmer; Waltham, MA, USA).
Background values were subtracted prior to further analysis. The percentage of cell viability was expressed as relative values versus untreated cells as determined by the various assays. EC50/IC50 values were calculated using GraphPad Prism (v10.4.1) and the in-built non-linear regression [log (inhibitor) vs. response—variable slope (four parameters)] calculation. […] Synergy scores were calculated using the ZIP model, which takes the advantages of both the Loewe additivity and the Bliss independence models, aiming at a systematic assessment of various types of drug interaction patterns that may arise in a high-throughput drug combination screening.

HT29PAR cells = experiment: Cell viability assay (MTT / CCK-8), drug-sensitive HT29; format: cell-based, human; conditions: Homo sapiens, HT-29, 72 h
Description: as §1
(§2) For MTT assays, media were replaced at the final timepoint with 100 μL of 1:10 MTT reagent (0.5 mg/mL in PBS) diluted in growth medium, and plates were incubated for 3 h. A total of 100 μL/well of stop buffer (50 g Sodium Dodecyl Sulfate, 245 mL ddH2O, 5 mL 1N HCl) was added and plates incubated for 24 h to let colored formazan crystals develop. Optical densities (ODs) were measured with a PowerWave^TM Microplate spectrophotometer (BioTek, Winooski, VT, USA) at 570 nm and 670 nm (background).
(§3) For CCK-8 assays, 100 μL of 1:10 CCK-8 reagent (pevonedistat-treated HT29 cells) diluted in medium was added to each well and cells incubated for 1–2 h at 37 °C. OD values were measured at 450 nm with a VersaMax microplate spectrophotometer (Molecular Devices, San Jose, CA, USA).
(§4) Background values were subtracted prior to further analysis. The percentage of cell viability was expressed as relative values versus untreated cells as determined by the various assays. EC50/IC50 values were calculated using GraphPad Prism (v10.4.1) and the in-built non-linear regression [log (inhibitor) vs. response—variable slope (four parameters)] calculation. For determination of synergy scores, the online tool SynergyFinder+ (https://synergyfinder.org access date 15 February 2025) was employed following 4 × 4- or 6 × 6-matrix dose-escalation cell viability experiments. Doses of drugs are indicated in the relevant figure legends and ranges have been chosen based on the response of cells to single-drug dose-dependent experiments. Synergy scores were calculated using the ZIP model, which takes the advantages of both the Loewe additivity and the Bliss independence models, aiming at a systematic assessment of various types of drug interaction patterns that may arise in a high-throughput drug combination screening.

HT29SN-38 cells [2] = experiment: Cellular dye efflux assay (Hoechst 33342), resistant cells; format: cell-based, human; conditions: SCO-101 20 µM, Ko-143 1 µM, PSC833 1 µM
Description: Twenty-four hours before the experiments, cells were seeded into 96-well Nunclon^TM plates at a density of 6000 (HT29), 7000 (PANC-1) or 8000 (LoVo) cells/well. The following day, cells were treated in triplicate with the relevant drugs at the indicated concentrations for 1 h. Next, 5 μg/mL Hoechst 33342 was added to the wells, and plates incubated at 37 °C for 30 min^−1 h. Cells were washed with cold PBS, treatments re-added and plates re-incubated at 37 °C for 30 min to 1 h. Plates were analyzed using a Celigo® (Nexcelom Bioscience, Lawrence, MA, USA) imaging cytometer. Data are expressed as percentages of fluorescence intensity, calculated through the following formula: % fluorescence intensity=Mean fluorescence intensity of sample/Mean fluorescence intensity of parental control×100
Fluorescent images were captured with an Olympus® IX71/TH4-200 microscope equipped with an Olympus® DP72 camera (Shinjuku, Tokyo, Japan), and cells were seeded at a 1.5 × 10^5 cells/well density and treated as described above.

MDR1/ABCB1 = MDR1/ABCB1 (Homo sapiens, UniProt P08183); experiment: Bidirectional transport of digoxin across Caco-2 cell monolayers; format: cell-based; parameters: endogenous in cells; host or cells: Caco-2; conditions: Caco-2 monolayers, 50 µM SCO-101
MDR1/ABCB1, sequence (P08183 whole entry): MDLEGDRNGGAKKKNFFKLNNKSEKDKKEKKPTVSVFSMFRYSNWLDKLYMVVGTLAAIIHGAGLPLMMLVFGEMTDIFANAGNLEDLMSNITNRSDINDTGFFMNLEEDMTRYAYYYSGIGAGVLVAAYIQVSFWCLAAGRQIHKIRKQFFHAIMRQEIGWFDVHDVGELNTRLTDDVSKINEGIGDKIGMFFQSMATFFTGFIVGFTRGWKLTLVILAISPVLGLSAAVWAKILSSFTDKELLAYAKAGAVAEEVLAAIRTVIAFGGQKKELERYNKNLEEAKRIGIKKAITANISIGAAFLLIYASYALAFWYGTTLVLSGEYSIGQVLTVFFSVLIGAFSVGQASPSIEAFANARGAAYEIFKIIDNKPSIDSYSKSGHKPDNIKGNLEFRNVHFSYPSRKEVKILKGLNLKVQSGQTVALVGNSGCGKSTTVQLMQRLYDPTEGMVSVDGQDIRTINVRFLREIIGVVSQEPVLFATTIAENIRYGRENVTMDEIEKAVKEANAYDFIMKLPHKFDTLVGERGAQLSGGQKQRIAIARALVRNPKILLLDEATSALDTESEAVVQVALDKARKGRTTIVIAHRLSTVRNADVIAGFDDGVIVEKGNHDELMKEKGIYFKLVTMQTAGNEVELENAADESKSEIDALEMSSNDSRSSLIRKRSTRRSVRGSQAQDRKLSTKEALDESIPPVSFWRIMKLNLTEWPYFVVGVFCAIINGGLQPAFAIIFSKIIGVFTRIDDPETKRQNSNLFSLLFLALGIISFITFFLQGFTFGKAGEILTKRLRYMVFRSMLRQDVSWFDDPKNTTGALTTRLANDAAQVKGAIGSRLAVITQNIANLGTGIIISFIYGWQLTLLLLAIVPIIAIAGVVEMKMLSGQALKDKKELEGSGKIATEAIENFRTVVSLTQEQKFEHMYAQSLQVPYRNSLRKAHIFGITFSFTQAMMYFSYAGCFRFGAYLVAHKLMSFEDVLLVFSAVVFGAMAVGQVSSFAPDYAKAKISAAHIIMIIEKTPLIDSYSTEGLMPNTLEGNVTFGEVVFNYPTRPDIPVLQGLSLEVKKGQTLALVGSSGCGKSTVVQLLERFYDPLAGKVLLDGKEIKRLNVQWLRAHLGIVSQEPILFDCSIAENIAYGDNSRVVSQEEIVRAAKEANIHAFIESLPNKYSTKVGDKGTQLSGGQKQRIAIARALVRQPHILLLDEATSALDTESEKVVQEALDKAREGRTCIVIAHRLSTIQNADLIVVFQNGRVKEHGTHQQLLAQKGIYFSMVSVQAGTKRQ
Description: Bidirectional transport experiments (basolateral-to-apical and apical-to-basolateral) with the ABCG2 substrate estrone-3-sulfate and the MDR1/ABCB1 substrate digoxin were performed in Caco-2 cell monolayers as previously described.

HT29SN-38 cells [3] = experiment: Cell viability assay (MTT / CCK-8), SN-38-resistant HT29; format: cell-based, human
Description: as §1, §2, §3, §4

O=C(Nc1cc(C(F)(F)F)cc(C(F)(F)F)c1)Nc1ccc(Br)cc1-c1nnn[nH]1 [SCO-101, N-[4-Bromo-2-(1H-1,2,3,4-tetrazol-5-yl)phenyl]-N′-[3,5-bis(trifluoromethyl)phenyl]urea]
toxicity [1]: low SCO-101 toxicity | IC50 (human UGT1A1 enzyme; substrate SN-38 10 μM, read-out: IC50, UGT1A1 glucuronidation of SN-38): 100 nM | IC50 (human UGT1A1 enzyme; substrate β-estradiol 10 μM, read-out: IC50, UGT1A1 glucuronidation of β-estradiol): 280 nM | IC50 (MKN45 cells): > 50000 nM | IC50 (HT29PAR cells): > 25000 nM | H33342 dye accumulation (HT29SN-38 cells [2]): restored | transport of the MDR1/ABCB1 substrate digoxin (MDR1/ABCB1): only a limited difference | IC50 (HT29SN-38 cells [3]; Homo sapiens, HT-29, 72 h): > 25000 nM | cell viability, SCO-101 in combination with SN-38 (HT29SN-38 cells [3]; SCO-101 0–50 µM + SN-38 0.08 μM): re-sensitization | cell viability after 24 h combination treatment and drug washout (HT29SN-38 cells [3]; SCO-101 15 μM + SN-38 0.5 μM, washout 48 h or 120 h): significant cytotoxic effect | cell viability after 24 h single treatment and drug washout (HT29SN-38 cells [3]; SCO-101 15 μM or SN-38 0.5 μM alone, washout 48 h or 120 h): did not affect cell viability

Source: paper PMC12027554, “Inhibition of ABCG2 by SCO-101 Enhances Chemotherapy Efficacy in Cancer” (International Journal of Molecular Sciences, 2025)
